Source: ChEMBL document CHEMBL1201862, “PubChem BioAssay data set” (2004)
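Growth conditions: 96-well plates. Treatment: test compound, 48 hours, 5 concentrations. Analysis: linear interpolation between bracketing concentrations; unreached endpoints set to highest concentration. GI50 = concentration required for 50% inhibition of growth.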 Active and inactive are the calls of the source. Rule as the data show it: active = GI50 up to about 1.1 µM and inactive = higher.

Key:
Assay in all cases: DTP human tumour cell line panel, 48 h
SN12C = tested on: SN12C
LXFL 529 = tested on: LXFL 529
SK-MEL-5 = tested on: SK-MEL-5
UO-31 = tested on: UO-31
A498 = tested on: A498
HT-29 = tested on: HT-29
SF-295 = tested on: SF-295
HCT-116 = tested on: HCT-116
OVCAR-3 = tested on: OVCAR-3
EKVX = tested on: EKVX
RXF 393 = tested on: RXF 393
UACC-62 = tested on: UACC-62
A549 = tested on: A549
HOP-62 = tested on: HOP-62
NCI-H460 = tested on: NCI-H460
K562 = tested on: K562
MCF7 = tested on: MCF7
Hs-578T = tested on: Hs-578T
XF498 = tested on: XF498
MDA-N = tested on: MDA-N

Compound	GI50 (SN12C)	GI50 (LXFL 529)	GI50 (SK-MEL-5)	GI50 (UO-31)	GI50 (A498)	GI50 (HT-29)	GI50 (SF-295)	GI50 (HCT-116)	GI50 (OVCAR-3)	GI50 (EKVX)	GI50 (RXF 393)	GI50 (UACC-62)	GI50 (A549)	GI50 (HOP-62)	GI50 (NCI-H460)	GI50 (K562)	GI50 (MCF7)	GI50 (Hs-578T)	GI50 (XF498)	GI50 (MDA-N)
CC1=NN(C(=O)c2ccc(Cl)cc2)C(=O)/C1=C/c1cccc(O)c1	> 100 µM (inactive)	> 100 µM (inactive)	> 100 µM (inactive)	> 100 µM (inactive)	> 100 µM (inactive)	> 100 µM (inactive)	> 100 µM (inactive)	> 100 µM (inactive)	> 100 µM (inactive)	> 100 µM (inactive)	> 100 µM (inactive)	> 100 µM (inactive)	> 100 µM (inactive)	> 100 µM (inactive)	> 100 µM (inactive)	> 100 µM (inactive)				
C=C1C(=O)C23CC1CCC2C12CO[C@@]3(O)[C@@H](O)C1C(C)(C)C=CC2=O (some centres undefined)	1.15 µM (inactive)		6.65 µM (inactive)	1.73 µM (inactive)	> 10 µM (inactive)	0.234 µM (active)	1.48 µM (inactive)	0.488 µM (active)	1.11 µM (active)	5.26 µM (inactive)	0.728 µM (active)	0.989 µM (active)	2.03 µM (inactive)	7.41 µM (inactive)	0.713 µM (active)	1.53 µM (inactive)	2.44 µM (inactive)	31.6 µM (inactive)	0.791 µM (active)	2.98 µM (inactive)
O=C1C(Cl)=C(Cl)C(=O)N1c1ccc(Cl)c(Cl)c1Cl	58.1 µM (inactive)	28.1 µM (inactive)	> 100 µM (inactive)	> 100 µM (inactive)	> 100 µM (inactive)	51.4 µM (inactive)	> 100 µM (inactive)	85.9 µM (inactive)	41.6 µM (inactive)	61.5 µM (inactive)		30.5 µM (inactive)	> 100 µM (inactive)	> 100 µM (inactive)	> 100 µM (inactive)	30.5 µM (inactive)				
CC1(C)CCC(=O)c2c(O)ccc(O)c21	> 100 µM (inactive)	42.8 µM (inactive)	> 100 µM (inactive)	> 100 µM (inactive)		30.1 µM (inactive)	> 100 µM (inactive)	51.9 µM (inactive)	> 100 µM (inactive)	> 100 µM (inactive)	18.4 µM (inactive)	66.8 µM (inactive)	> 100 µM (inactive)			26.1 µM (inactive)				
O=Cc1c[nH]c2c(=O)[nH]cnc12	> 100 µM (inactive)	> 100 µM (inactive)	> 100 µM (inactive)	> 100 µM (inactive)		> 100 µM (inactive)	> 100 µM (inactive)	> 100 µM (inactive)	> 100 µM (inactive)	> 100 µM (inactive)	> 100 µM (inactive)	> 100 µM (inactive)	> 100 µM (inactive)	> 100 µM (inactive)		> 100 µM (inactive)				
S=c1c2ccccc2c(=S)n2n1CC=CC2	> 100 µM (inactive)	> 100 µM (inactive)	> 100 µM (inactive)	> 100 µM (inactive)	76.2 µM (inactive)	> 100 µM (inactive)	> 100 µM (inactive)	> 100 µM (inactive)	> 100 µM (inactive)	> 100 µM (inactive)	> 100 µM (inactive)	> 100 µM (inactive)	> 100 µM (inactive)			> 100 µM (inactive)				
CC#CC1/C(=C\C(=O)OC)CCCC1O (centres undefined)	> 100 µM (inactive)		> 100 µM (inactive)	> 100 µM (inactive)	> 100 µM (inactive)	> 100 µM (inactive)	> 100 µM (inactive)	> 100 µM (inactive)	> 100 µM (inactive)	> 100 µM (inactive)	> 100 µM (inactive)	> 100 µM (inactive)	> 100 µM (inactive)	> 100 µM (inactive)	> 100 µM (inactive)	> 100 µM (inactive)			> 100 µM (inactive)	
Cc1cc(C)c2c(c1C)CN1CN2Cc2c(C)c(C)cc(C)c21	> 100 µM (inactive)	8.15 µM (inactive)		> 100 µM (inactive)		44.4 µM (inactive)	> 100 µM (inactive)	> 100 µM (inactive)	18.9 µM (inactive)	> 100 µM (inactive)	4.38 µM (inactive)	> 100 µM (inactive)	80.9 µM (inactive)	> 100 µM (inactive)	48.4 µM (inactive)	8.75 µM (inactive)				
CCCCCCCCCC[C@H](O)[C@H](O)CC[C@@H](O)[C@H]1CC[C@@H]([C@H]2CC[C@H](CCCCCCC[C@@H](O)CC3=C[C@H](C)OC3=O)O2)O1	4.06 µM (inactive)		1.06 µM (active)	1.22 µM (inactive)	8.97 µM (inactive)	2.2 µM (inactive)	1.22 µM (inactive)	2.64 µM (inactive)	1.42 µM (inactive)	1.46 µM (inactive)	4.48 µM (inactive)	1.67 µM (inactive)	1.84 µM (inactive)	2.42 µM (inactive)	1.82 µM (inactive)	1.7 µM (inactive)	1.16 µM (inactive)	2.79 µM (inactive)		2.82 µM (inactive)
